From ChEMBL document CHEMBL5042535, “Structure-Based Design and Synthesis of N-Substituted 3-Amino-β-Carboline Derivatives as Potent αβ-Tubulin Degradation Agents” (J Med Chem, 2022)
pIC50: −log10 of the molar value. Activity calls are given as the source filed them. The rule behind the calls is not given here.

Tests used:
A2780/Taxol [1] = assay: Cytotoxicity in human A2780T assessed as inhibition in cell growth measured after 24 hrs by MTT assay; assay type: functional, cell-based
[2] = Drug resistance index, ratio of IC50 for human A549 cancer cell to ratio of IC50 for human A549T cancer cell; assay type: functional
A2780S [3] = assay: Cytotoxicity in human A2780S assessed as inhibition in cell growth measured after 24 hrs by MTT assay; assay type: functional, cell-based
A2780S [4] = assay: Effect on microtubule network in human A2780S cells assessed as bundling of microtubule fibers near nucleus at 100 nM for 24 hrs; assay type: functional, cell-based
[5] = Drug resistance index, ratio of IC50 for human A2780S cancer cell to ratio of IC50 for human A2780T cancer cell; assay type: functional
A2780/Taxol [6] = assay: Antitumor activity against human A2780T cells xenografted in mouse assessed as tumor growth inhibition at 10 mg/kg, iv treated 3 times a week; assay type: functional; conditions: read-out: TGI
A549/TR = assay: Cytotoxicity in human A549T assessed as inhibition in cell growth measured after 24 hrs by MTT assay; assay type: functional, cell-based
NCI/ADR-RES = assay: Cytotoxicity in human NCI-ADR-RES assessed as inhibition in cell growth measured after 24 hrs by MTT assay; assay type: functional, cell-based
[7] = Drug resistance index, ratio of IC50 for human MCF7 cancer cell to ratio of IC50 for human NCI-ADR-RES cancer cell; assay type: functional
A2780/Taxol [8] = assay: Antitumor activity against human A2780T cells xenografted in mouse assessed as tumor growth inhibition at 40 mg/kg, iv treated 3 times a week; assay type: functional; conditions: read-out: TGI
A2780/Taxol [9] = assay: Antitumor activity against human A2780T cells xenografted in mouse assessed as tumor growth inhibition at 20 mg/kg, iv treated 3 times a week; assay type: functional; conditions: read-out: TGI
A2780S [10] = assay: Antitumor activity against human A2780S cells xenografted in mouse assessed as tumor growth inhibition at 20 mg/kg, ip; assay type: functional; conditions: read-out: TGI
A2780/Taxol [11] = assay: Antitumor activity against mouse xenografted with human A2780T cell assessed as tumor growth inhibition at 20 mg/kg, ip; assay type: functional; conditions: read-out: TGI
A2780/Taxol [12] = assay: Induction of cell cycle arrest in human A2780T cells assessed as accumulation at G2/M phase at 100 nM measured after 48 hrs by flow cytometry analysis relative to control; assay type: functional
[13] = Cmax in rat at 5 mg/kg, po; assay type: ADME, organism-based; set-up: route oral, dose 5 mg/kg; conditions: in vivo
HUVEC [14] = assay: Antimigratory activity against human HUVEC cells assessed as reduction in cell migration at upto 10 nM incubated for 48 hrs by wound healing assay; assay type: functional; set-up: scale not given: the % may be the effect or the level left; conditions: dose nM <=10
HeLa [15] = assay: Induction of Beta tubulin degradation in human HeLa cells pretreated with MG132 at 10 uM for 1 hrs followed by compound addition measured after 16 hrs by Western blot analysis; assay type: cell-based
A549 = assay: Cytotoxicity in human A549 assessed as inhibition in cell growth measured after 24 hrs by MTT assay; assay type: functional, cell-based; conditions: A549, 24 h
A2780S [16] = assay: Antitumor activity against human A2780S cells xenografted in mouse assessed as tumor growth inhibition at 20 mg/kg, iv measured on three times in week; assay type: functional; conditions: read-out: TGI
A2780S [17] = assay: Induction of apoptosis in PTX sensitive human A2780S cells at 100 to 300 nM incubated for 48 hrs by Annexin V-FITC/PI staining based flow cytometry method; assay type: functional, cell-based; conditions: dose 100-300 nM
A2780S [18] = assay: Antiproliferative activity against human A2780S cells assessed as reduction in cell viability measured after 24 hrs by MTT assay; assay type: functional, cell-based
NCI-H460 = assay: Antiproliferative activity against human NCI-H460 cells assessed as reduction in cell viability measured after 24 hrs by MTT assay; assay type: functional, cell-based; conditions: NCI-H460, 24 h
A2780S [19] = assay: Antitumor activity against human A2780S cells xenografted in mouse assessed as tumor growth inhibition at 40 mg/kg, iv; assay type: functional; conditions: read-out: TGI
HeLa [20] = assay: Induction of Alpha/beta tubulin degradation in human HeLa cells pretreated with PYR-41 at 10 uM for 1 hrs followed by compound addition measured after 16 hrs by Western blot analysis; assay type: cell-based
HeLa [21] = assay: Induction of Alpha/beta tubulin degradation in human HeLa cells pretreated with colchicine at 10 uM for 1 hrs by Western blot analysis; assay type: cell-based
A2780/Taxol [22] = assay: Induction of cell cycle arrest in human A2780T cells assessed as accumulation at G2/M phase at 300 nM measured after 48 hrs by flow cytometry analysis relative to control; assay type: functional
[23] = Oral bioavailability in rat at 5 mg/kg; assay type: ADME, organism-based; conditions: in vivo
HUVEC [24] = assay: Antimigratory activity against human HUVEC cells assessed as reduction in metastasis at upto 5 nM incubated for 24 hrs by wound healing assay; assay type: functional, cell-based; conditions: dose nM <=5, time 24.0 hrs
[25] = Volume of distribution at steady state in rat at 5 mg/kg, po; assay type: ADME, organism-based; conditions: in vivo
[26] = Toxicity in mouse xenografted with human A2780S cells assessed as body weight loss at 40 mg/kg, iv; assay type: organism-based; conditions: in vivo
[27] = Half life in rat at 5 mg/kg, iv; assay type: ADME, organism-based; conditions: in vivo
A2780S [28] = assay: Induction of cell cycle arrest in human A2780S cells assessed as accumulation at G2/M phase at 300 nM measured after 48 hrs by flow cytometry analysis relative to control; assay type: functional
HUVEC [29] = assay: Antimigratory activity against human HUVEC cells assessed as reduction in metastasis at upto 5 nM incubated for 48 hrs by wound healing assay; assay type: functional, cell-based; conditions: dose nM <=5, time 48.0 hrs
MCF7 [30] = assay: Cytotoxicity in human MCF7 assessed as inhibition in cell growth measured after 24 hrs by MTT assay; assay type: functional, cell-based; conditions: MCF7, 24 h
HUVEC [31] = assay: Antimigratory activity against human HUVEC cells assessed as reduction in cell migration at upto 10 nM incubated for 24 hrs by wound healing assay; assay type: functional; set-up: scale not given: the % may be the effect or the level left; conditions: dose nM <=10
[32] = Toxicity in mouse xenografted with human A2780S cells assessed as body weight loss at 40 mg/kg, po; assay type: organism-based; conditions: in vivo
HUVEC [33] = assay: Antimigratory activity against human HUVEC cells assessed as reduction in cell migration at upto 5 nM incubated for 48 hrs by wound healing assay relative to control; assay type: functional; set-up: scale not given: the % may be the effect or the level left; conditions: dose nM <=5
[34] = Clearance in rat at 5 mg/kg, po; assay type: ADME, organism-based; conditions: in vivo
HeLa [35] = assay: Induction of Alpha/beta tubulin degradation in human HeLa cells pretreated with colchicine at 10 uM for 1 hrs followed by compound addition measured after 16 hrs by Western blot analysis; assay type: cell-based
HeLa [36] = assay: Induction of Alpha/beta tubulin degradation in human HeLa cells measured after 16 hrs by immunoblot analysis; assay type: cell-based; conditions: dose 0-50 µM
A2780S [37] = assay: Induction of apoptosis in human A2780S cells assessed as late apoptotic cells level at 100 nM incubated for 48 hrs by Annexin V-FITC/PI staining based flow cytometry (reference value: 5.2%); assay type: functional
[38] = Half life in rat at 5 mg/kg, po; assay type: ADME, organism-based; conditions: in vivo
[39] = Volume of distribution at steady state in rat at 5 mg/kg, iv; assay type: ADME, organism-based; conditions: in vivo, read-out: Vdss
A2780S [40] = assay: Induction of cell cycle arrest in human A2780S cells assessed as accumulation at G2/M phase at 100 nM measured after 48 hrs by flow cytometry analysis relative to control; assay type: functional
HeLa [41] = assay: Induction of Beta tubulin degradation in human HeLa cells at upto 10 uM for 16 hrs by immunoblot analysis; assay type: cell-based; conditions: dose microM <=10, time 16.0 hrs
A2780/Taxol [42] = assay: Induction of apoptosis in PTX resistant human A2780T cells at 100 to 300 nM incubated for 48 hrs by Annexin V-FITC/PI staining based flow cytometry method; assay type: functional, cell-based; conditions: dose 100-300 nM
HUVEC [43] = assay: Antimigratory activity against human HUVEC cells assessed as reduction in tumor cell migration at upto 5 nM incubated for 24 hrs by wound healing assay relative to control; assay type: functional; set-up: scale not given: the % may be the effect or the level left; conditions: dose nM <=5
MCF7 [44] = assay: Antiproliferative activity against human MCF7 cells assessed as reduction in cell viability measured after 24 hrs by MTT assay; assay type: functional, cell-based; conditions: MCF7, 24 h
[45] = Cmax in rat plasma at 5 mg/kg, iv; assay type: ADME, organism-based; set-up: route intravenous, dose 5 mg/kg
Tubulin (Homo sapiens) = Tubulin (Homo sapiens) (UniProt P68371+Q9H4B7+P0DPH7+P68366+Q13509+Q71U36+P04350+Q3ZCM7+P07437+P68363+Q9BQE3+Q6PEY2+Q13885+Q9BVA1+Q9BUF5); assay: Inhibition of tubulin polymerization in human A2780S cells assessed as microtubule network polymerization at 10 to 1000 nM after 24 hrs by immunofluorescence analysis; assay type: cell-based; conditions: dose 10-1000 nM
HeLa [46] = assay: Antiproliferative activity against human HeLa cells assessed as reduction in cell viability measured after 24 hrs by MTT assay; assay type: functional, cell-based
A2780S [47] = assay: Induction of apoptosis in human A2780S cells assessed as late apoptotic cells level at 300 nM incubated for 48 hrs by Annexin V-FITC/PI staining based flow cytometry (reference value: 5.2%); assay type: functional
A2780S [48] = assay: Induction of apoptosis in human A2780S cells assessed as late apoptotic cells level at 30 nM incubated for 48 hrs by Annexin V-FITC/PI staining based flow cytometry (reference value: 5.2%); assay type: functional
K562 = assay: Induction of Beta tubulin degradation in human K562 cells at upto 10 uM for 16 hrs by immunoblot analysis; assay type: cell-based; conditions: dose microM <=10, time 16.0 hrs
[49] = Clearance in rat at 5 mg/kg, iv; assay type: ADME, organism-based; conditions: in vivo
A2780S [50] = assay: Antitumor activity against mouse xenografted with human A2780S cell assessed as tumor growth inhibition at 40 mg/kg, po; assay type: functional; conditions: read-out: TGI
A2780S [51] = assay: Antitumor activity against human A2780S cells xenografted in mouse assessed as tumor growth inhibition at 10 mg/kg, iv measured on three times in week; assay type: functional; conditions: read-out: TGI
Raji = assay: Antiproliferative activity against human Raji cells assessed as reduction in cell viability measured after 24 hrs by MTT assay; assay type: functional, cell-based

CC(=O)O[C@H]1C(=O)[C@@]2(C)[C@H]([C@H](OC(=O)c3ccccc3)[C@]3(O)C[C@H](OC(=O)[C@H](O)[C@@H](NC(=O)c4ccccc4)c4ccccc4)C(C)=C1C3(C)C)[C@]1(OC(C)=O)CO[C@@H]1C[C@@H]2O [PACLITAXEL]
pIC50 (A2780/Taxol [1]): 4.23
Ratio IC50 [2]: 33.1
pIC50 (A2780S [3]): 7.22
Activity (A2780S [4]): Active
Ratio IC50 [5]: 974.4
inhibition in vivo at 10 mg/kg (A2780/Taxol [6]): 26.9%
pIC50 (A549/TR): 6.10
pIC50 (NCI/ADR-RES): 5.03
Ratio IC50 [7]: 289
inhibition in vivo at 40 mg/kg (A2780/Taxol [8]): 75.7%
inhibition in vivo at 20 mg/kg (A2780/Taxol [9]): 37.2%
inhibition in vivo at 20 mg/kg (A2780S [10]): 66.1%
inhibition in vivo at 20 mg/kg (A2780/Taxol [11]): 21.7%

c1cc(CNc2cc3c(cn2)[nH]c2ccccc23)cc(Oc2ccc3c(c2)OCO3)c1
Activity (A2780/Taxol [12]): 72.18%
Cmax [13]: 2.6 µg/mL
Activity (HUVEC [14]): 28.47%
Activity (HeLa [15]): Active
pIC50 (A549): 7.22
inhibition in vivo at 20 mg/kg (A2780S [16]): 71.5%
Activity (A2780S [17]): Active
pIC50 (A2780S [18]): 8.10
pIC50 (NCI-H460): 7.85
inhibition in vivo at 40 mg/kg (A2780S [19]): 92.4%
pIC50 (A2780/Taxol [1]): 7.88
Ratio IC50 [2]: 1.1
pIC50 (A2780S [3]): 7.79
Activity (HeLa [20]): Active
Ratio IC50 [5]: 0.8
Activity (HeLa [21]): Active
Activity (A2780/Taxol [22]): 72.89%
bioavailability [23]: 30.7%
Activity (HUVEC [24]): Active
Vdss [25]: 35.26 L/kg
Activity [26]: Non-Toxic
half-life [27]: 3.57 h
Activity (A2780S [28]): 79.54%
Activity (HUVEC [29]): Active
pIC50 (MCF7 [30]): 7.95
Activity (HUVEC [31]): 20.8%
Activity [32]: Toxic
Activity (HUVEC [33]): 85.07%
pIC50 (A549/TR): 7.20
CL/F [34]: 5.06 L/h/kg
Activity (HeLa [35]): Active
Activity (HeLa [36]): Active
Activity (A2780S [37]): 25.2%
half-life [38]: 4.42 h
Vd [39]: 8.08 L/kg
Activity (A2780S [40]): 55.1%
Activity (HeLa [41]): Active
Activity (A2780/Taxol [42]): Active
pIC50 (NCI/ADR-RES): 7.87
Activity (HUVEC [43]): 76.21%
pIC50 (MCF7 [44]): 8.05
Cmax [45]: 0.189 µg/mL
Ratio IC50 [7]: 1.2
Activity (Tubulin (Homo sapiens)): inactive
pIC50 (HeLa [46]): 8.30
Activity (A2780S [47]): 30.6%
Activity (A2780S [48]): 3.7%
Activity (K562): Active
clearance [49]: 1.52 L/h/kg
inhibition in vivo at 40 mg/kg (A2780S [50]): 34.9%
inhibition in vivo at 10 mg/kg (A2780S [51]): 66.1%
pIC50 (Raji): 7.89
